According to patent US20260184700A1, “PDK1 REGULATORY COMPOUND AND COMPOSITION CONTAINING THE SAME” (PROVIBIO CO., LTD., priority 2024, published 2026):

Tests used:
[1] = test system: Human B Lymphocyte cell line, SU-DHL-8; experiment: Relative cell viability, CCK-8, SU-DHL-8; assay type: cell-based; details: 48 hours
Description: Human-derived B lymphoma cell line SU-DHL-8 (Cat. #CRL-2961) purchased from ATCC was cultured in RPMI-1640 medium containing 10% FBS, 100 U/mL penicillin, and 100 μg/mL streptomycin.
The cell culture medium was then harvested, centrifuged at 1,300 rpm for 5 minutes, and the supernatant was removed. The cells were resuspended in the same medium and dispensed into a 96-well plate (Costar 96-well cell culture plate, Corning) at 90 μL per well, resulting in the conditions specified in Table 5.
Then, 10 μL of CCK-8 was added to each well, and the plates were incubated again at 37° C. in a 5% CO2 incubator for 4 hours.
(§1) In other words, when the survival rate of untreated cells (DMSO) is set at 100%, the relative cell survival rate in each group treated with the drug at different concentrations is indicated.

[2] = test system: Human Colorectal Carcinoma cell line, HCT-116; experiment: Relative cell viability, CCK-8, HCT-116; assay type: cell-based; details: 48 hours
Description: Human-derived breast cancer cell line MCF-7, human-derived lung cancer cell line A549, human-derived colorectal cancer cell line HCT-116, human pancreatic cancer cell line AsPC-1, glioblastoma cell line A172, and melanoma cell line Malme-3M were obtained from the Korean Cell Bank. gastric cancer cell line SNU-719, and bladder cancer cell line T24 were cultured in RPMI-1640 medium containing 10% FBS.
Following stabilization, the cells were harvested using Trypsin-EDTA treatment, centrifuged at 1,200 rpm for 3 minutes, the supernatant was removed, and the cells were resuspended in the same medium. They were then seeded into a 96-well plate (Costar 96-well cell culture plate, Corning) at 100 μL per well, and the conditions were adjusted as indicated in Table 5.
The cells were cultured in a 5% CO2 incubator at 37° C. for 24 hours, and after stabilization of the cells, each plate was washed with 200 μL of PBS per well and treated with 50 μL of culture medium per well.
After that, 10 μL of CCK-8 was added to each well, and the plate was incubated again at 37° C. in a 5% CO2 incubator for 2 hours.
as §1

[3] = test system: MRL/lpr mice; experiment: Lupus animal model (MRL/lpr mice); assay type: in vivo, mouse; details: 41-week-old female MRL/lpr mice; GO15F (30 mg/kg), GO48 (1 mg/kg), GO88 (0.5 mg/kg) intraperitoneally once daily
Excerpt: The MRL/MpJ-Faslpr/J (Hereinafter Referred to as “MRL/lpr”) used in this experiment is one of the representative animal models for systemic lupus erythematosus (SLE), known to produce various autoantibodies, including antinuclear antibodies, due to the lpr (lymphoproliferation) gene.
In this invention, the period up to 9 weeks of age was considered the pre-disease stage, and the period after 23 weeks of age was considered the post-disease stage, and efficacy verification experiments using this model were conducted.
MRL/lpr mice were imported from The Jackson Laboratory and acclimatized for one week in an SPF (Specific Pathogen Free) facility maintained at a temperature of 21-24° C., humidity of 40-60%, and a 12-hour light-dark cycle (lights on at 7:00 AM, lights off at 7:00 PM). […]
The serum separated at the time of necropsy of the lupus animal model was analyzed using the ‘IgG (Total) Mouse Uncoated ELISA Kit (Invitrogen, Cat. #88-50400)’ to measure the concentration of total IgG.
Capture antibody (anti-mouse IgG) diluted 1/250 in coating buffer was added to each well of a 96-well plate (Nunc™ MaxiSorp™ ELISA Plates, Uncoated, BioLegend, Cat. #423501) at 100 μl per well, and the plate was incubated at 4° C. for 16 hours.
To investigate the effect of GO15F administration on changes in the ratio of immune cells in the spleen of a lupus animal model, the spleens of mice administered each compound were excised, cells were extracted, and the cells were suspended in MACS buffer (autoMACS Washing Solution, Miltenyi Biotec., Cat. #130-092-987).
For flow cytometry analysis, FACS tubes (5 mL round tubes, Falcon, Cat. #352052) were used. To prevent non-specific binding of antibodies, 1 μg/mL of anti-mouse CD16/CD32 (InVivoPlus anti-mouse CD16/CD32, BioXCell, Cat. #BP0307) for 30 minutes to prevent non-specific binding of the antibody, then centrifuge at 1,500 rpm for 5 minutes and resuspend in 100 μL of MACS buffer.
For B cells, each FACS tube was stained with 1 μg/mL of FITC-conjugated anti-B220 antibody (eBioscience™, Cat. #11-0452-81) at 4° C. for 30 minutes, then washed with 2 mL of MACS buffer.
For T cells, each FACS tube was stained with 1 μg/mL PerCP-Cy5.5-conjugated anti-CD3 (Biolegend, Cat. #100218) at 4° C. for 30 minutes.
For macrophages, each FACS tube was stained with 1 μg/mL of PE-conjugated anti-CD11b antibody (Biolegend, Cat. #101207) and PerCP-Cy5.5-conjugated anti-F4/80 (Biolegend, Cat. #123128) and incubated at 4° C. for 30 minutes. The tubes were then washed with 2 mL of MACS buffer.
To investigate the effects of compound GO15F according to the present invention on systemic immune responses in a lupus animal model, gene expression analysis of cytokines in kidney tissue was performed as described in (1).
Each kidney tissue was used to isolate total RNA using TRIzol™ (Invitrozen, Cat. #15596018). RNA from each mouse was quantified at 1 μg using a micro-quantitative spectrophotometer (ThermoFisher Scientific, ND2000) and cDNA was synthesized.
The synthesized cDNA from each mouse was quantified to a concentration of 50 ng using a micro-quantitative spectrophotometer, and qPCR was performed for the cytokines ‘IL-2, IL-6, IL-10, IL-17, TNF-α, IFN-γ’ using a SYBR green probe (CFX96, BIO-RAD).
To investigate the effects of drug administration on renal tissue in MRL/lpr mice, the tissue was fixed in 10% neutral buffered formalin at room temperature, followed by stepwise ethanol penetration for dehydration. The tissue was then embedded in xylene and paraffin.
The blocked tissues were sectioned into 4 μm thick slices using a microtome, followed by deparaffinization, hydration, and staining.
Hematoxylin & Eosin staining, PAS staining, and Masson trichrome staining were performed for pathological evaluation of the tissues. […]

SMILES: CC1(C)CN(CCCCCCCCCCCCC(=O)Nc2nc(N)c3[nH]cnc3n2)CCO1 [Compound 11, 12-[4-(2,2-dimethylmorpholin-4-yl)]dodecyl-N-(6-aminopurine-2-yl)carboxamide]
- Relative cell viability (%) ([1]; SU-DHL-8, 1 μM): 7.63%
- Relative cell viability (%) ([1]; SU-DHL-8, 10 μM): 6.09%
- Relative cell viability (%) ([1]; SU-DHL-8, 30 μM): 4.82%
- Relative cell viability (%) ([1]; SU-DHL-8, 50 μM): 3.29%
- Relative cell viability (%) ([2]; HCT-116, 1 μM): 21.36%
- Relative cell viability (%) ([2]; HCT-116, 10 μM): 24.91%
- Relative cell viability (%) ([2]; HCT-116, 30 μM): 24.78%
- Relative cell viability (%) ([2]; HCT-116, 50 μM): 25.26%

SMILES: Nc1ncccc1C(=O)NCCCCCCCCCCCCN1CCNCC1 [Compound 14, 2-Amino-N-(12-(piperazin-1-yl)dodecyl)nicotinamide]
- hair growth on the facial region [3]: hair growth was confirmed
